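Here, GI50 denotes the concentration required for 50% inhibition of growth. Definition used: TGI = concentration required for complete inhibition of growth.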
Legend:
Test in all cases: NCI-60 cell line screen, 384-well format
ACHN renal = system: ACHN renal
MOLT-4 leukemia = system: MOLT-4 leukemia
CAKI-1 renal = system: CAKI-1 renal
786-0 renal = system: 786-0 renal
TK-10 renal = system: TK-10 renal
OVCAR-4 ovarian = system: OVCAR-4 ovarian
CCRF-CEM leukemia = system: CCRF-CEM leukemia
EKVX NSCLC = system: EKVX NSCLC
MDA-MB-468 breast = system: MDA-MB-468 breast
SNB-19 CNS = system: SNB-19 CNS
NCI-H522 lung = system: NCI-H522 lung
OVCAR-3 ovarian = system: OVCAR-3 ovarian
KM12 colon = system: KM12 colon
PC-3 prostate = system: PC-3 prostate
HOP-92 NSCLC = system: HOP-92 NSCLC
HCT-15 colon = system: HCT-15 colon
HT29 colon = system: HT29 colon
M14 melanoma = system: M14 melanoma
T-47D breast = system: T-47D breast
UACC-257 melanoma = system: UACC-257 melanoma
NCI-H23 lung = system: NCI-H23 lung
HL-60(TB) leukemia = system: HL-60(TB) leukemia
DU-145 prostate = system: DU-145 prostate
RPMI-8226 leukemia = system: RPMI-8226 leukemia
MCF7 breast = system: MCF7 breast
NCI-H322M lung = system: NCI-H322M lung
HOP-62 NSCLC = system: HOP-62 NSCLC
SF-295 CNS = system: SF-295 CNS
MDA-MB-231 breast = system: MDA-MB-231 breast
SR leukemia = system: SR leukemia
OVCAR-8 ovarian = system: OVCAR-8 ovarian
NCI-H460 NSCLC = system: NCI-H460 NSCLC
LOX IMVI melanoma = system: LOX IMVI melanoma
SF-539 CNS = system: SF-539 CNS
IGROV1 ovarian = system: IGROV1 ovarian
NCI-H226 lung = system: NCI-H226 lung
A549 NSCLC = system: A549 NSCLC
UO-31 renal = system: UO-31 renal
HCT-116 colon = system: HCT-116 colon
MDA-MB-435 melanoma = system: MDA-MB-435 melanoma
COLO 205 colon = system: COLO 205 colon
A498 renal = system: A498 renal
RXF 393 renal = system: RXF 393 renal
SW-620 colon = system: SW-620 colon
OVCAR-5 ovarian = system: OVCAR-5 ovarian
MALME-3M melanoma = system: MALME-3M melanoma
SF-268 CNS = system: SF-268 CNS
U251 glioblastoma = system: U251 glioblastoma
SK-MEL-28 melanoma = system: SK-MEL-28 melanoma
SK-OV-3 ovarian = system: SK-OV-3 ovarian
HCC-2998 colon = system: HCC-2998 colon
K-562 leukemia = system: K-562 leukemia
SNB-75 CNS = system: SNB-75 CNS
HS 578T breast = system: HS 578T breast
SN12C renal = system: SN12C renal
NCI/ADR-RES ovarian = system: NCI/ADR-RES ovarian
BT-549 breast = system: BT-549 breast
SK-MEL-5 melanoma = system: SK-MEL-5 melanoma

SMILES: COc1ccc2c(c[n+](C)c3c4cc5c(cc4ccc23)OCO5)c1OC
- GI50 (ACHN renal): 1820 nM
- TGI (ACHN renal): 3210 nM
- GI50 (MOLT-4 leukemia): 163 nM
- TGI (MOLT-4 leukemia): 300 nM
- GI50 (CAKI-1 renal): 1270 nM
- TGI (CAKI-1 renal): 2560 nM
- GI50 ([…]-0 renal): 1340 nM
- TGI (786-0 renal): 2630 nM
- GI50 (TK-10 renal): 1420 nM
- TGI (TK-10 renal): 2730 nM
- GI50 (OVCAR-4 ovarian): 1500 nM
- TGI (OVCAR-4 ovarian): 2870 nM
- GI50 (CCRF-CEM leukemia): 146 nM
- TGI (CCRF-CEM leukemia): 278 nM
- GI50 (EKVX NSCLC): 1450 nM
- TGI (EKVX NSCLC): 2760 nM
- GI50 (MDA-MB-468 breast): 365 nM
- TGI (MDA-MB-468 breast): 1360 nM
- GI50 (SNB-19 CNS): 1500 nM
- TGI (SNB-19 CNS): 2840 nM
- GI50 (NCI-H522 lung): 1440 nM
- TGI (NCI-H522 lung): 2750 nM
- GI50 (OVCAR-3 ovarian): 362 nM
- TGI (OVCAR-3 ovarian): 1330 nM
- GI50 (KM12 colon): 1470 nM
- TGI (KM12 colon): 2800 nM
- GI50 (PC-3 prostate): 1190 nM
- TGI (PC-3 prostate): 2420 nM
- GI50 (HOP-92 NSCLC): 1510 nM
- TGI (HOP-92 NSCLC): 2850 nM
- GI50 (HCT-15 colon): 825 nM
- TGI (HCT-15 colon): 2070 nM
- GI50 (HT29 colon): 1680 nM
- TGI (HT29 colon): 3050 nM
- GI50 (M14 melanoma): 1590 nM
- TGI (M14 melanoma): 2940 nM
- GI50 (T-47D breast): 1630 nM
- TGI (T-47D breast): 2990 nM
- GI50 (UACC-257 melanoma): 1230 nM
- TGI (UACC-257 melanoma): 2480 nM
- GI50 (NCI-H23 lung): 1000 nM
- TGI (NCI-H23 lung): 2160 nM
- GI50 (HL-60(TB) leukemia): 182 nM
- TGI (HL-60(TB) leukemia): 324 nM
- GI50 (DU-145 prostate): 1460 nM
- TGI (DU-145 prostate): 2770 nM
- GI50 (RPMI-8226 leukemia): 440 nM
- TGI (RPMI-8226 leukemia): 1460 nM
- GI50 (MCF7 breast): 1130 nM
- TGI (MCF7 breast): 2350 nM
- GI50 (NCI-H322M lung): 1770 nM
- TGI (NCI-H322M lung): 3190 nM
- GI50 (HOP-62 NSCLC): 1060 nM
- TGI (HOP-62 NSCLC): 2250 nM
- GI50 (SF-295 CNS): 1740 nM
- TGI (SF-295 CNS): 3150 nM
- GI50 (MDA-MB-231 breast): 721 nM
- TGI (MDA-MB-231 breast): 1990 nM
- GI50 (SR leukemia): 174 nM
- TGI (SR leukemia): 317 nM
- GI50 (OVCAR-8 ovarian): 395 nM
- TGI (OVCAR-8 ovarian): 1430 nM
- GI50 (NCI-H460 NSCLC): 1520 nM
- TGI (NCI-H460 NSCLC): 2850 nM
- GI50 (LOX IMVI melanoma): 1100 nM
- TGI (LOX IMVI melanoma): 2310 nM
- GI50 (SF-539 CNS): 1630 nM
- TGI (SF-539 CNS): 2990 nM
- GI50 (IGROV1 ovarian): 1620 nM
- TGI (IGROV1 ovarian): 2970 nM
- GI50 (NCI-H226 lung): 1830 nM
- TGI (NCI-H226 lung): 3220 nM
- GI50 (A549 NSCLC): 1830 nM
- TGI (A549 NSCLC): 3270 nM
- GI50 (UO-31 renal): 1400 nM
- TGI (UO-31 renal): 2700 nM
- GI50 (HCT-116 colon): 399 nM
- TGI (HCT-116 colon): 1380 nM
- GI50 (MDA-MB-435 melanoma): 1630 nM
- TGI (MDA-MB-435 melanoma): 2990 nM
- GI50 (COLO 205 colon): 1570 nM
- TGI (COLO 205 colon): 2920 nM
- GI50 (A498 renal): 1870 nM
- TGI (A498 renal): 3390 nM
- GI50 (RXF 393 renal): 1570 nM
- TGI (RXF 393 renal): 2940 nM
- GI50 (SW-620 colon): 267 nM
- TGI (SW-620 colon): 758 nM
- GI50 (OVCAR-5 ovarian): 1760 nM
- TGI (OVCAR-5 ovarian): 3160 nM
- GI50 (MALME-3M melanoma): 748 nM
- TGI (MALME-3M melanoma): 1960 nM
- GI50 (SF-268 CNS): 1340 nM
- TGI (SF-268 CNS): 2620 nM
- GI50 (U251 glioblastoma): 866 nM
- TGI (U251 glioblastoma): 2080 nM
- GI50 (SK-MEL-28 melanoma): 1900 nM
- TGI (SK-MEL-28 melanoma): 3350 nM
- GI50 (SK-OV-3 ovarian): 1710 nM
- TGI (SK-OV-3 ovarian): 3130 nM
- GI50 (HCC-2998 colon): 1590 nM
- TGI (HCC-2998 colon): 2940 nM
- GI50 (K-562 leukemia): 1610 nM
- TGI (K-562 leukemia): 2970 nM
- GI50 (SNB-75 CNS): 1640 nM
- TGI (SNB-75 CNS): 3000 nM
- GI50 (HS 578T breast): 1550 nM
- TGI (HS 578T breast): 2890 nM
- GI50 (SN12C renal): 615 nM
- TGI (SN12C renal): 1890 nM
- GI50 (NCI/ADR-RES ovarian): 1020 nM
- TGI (NCI/ADR-RES ovarian): 2590 nM
- GI50 (BT-549 breast): 680 nM
- TGI (BT-549 breast): 1940 nM
- GI50 (SK-MEL-5 melanoma): 720 nM
- TGI (SK-MEL-5 melanoma): 2040 nM

— PubChem BioAssay (NCI)
